Test results published in patent US9932331B2, “Phenyl tetrahydroisoquinoline compound substituted with heteroaryl” (TAISHO PHARMACEUTICAL CO., LTD, priority 2014, dated 2018).
Counter-ions that a name gives are not always drawn.

Key:
SD rat = experiment: 32P-phosphate oral loading test using SD rat (phosphorus absorption inhibitory effect); format: in vivo; conditions: Rattus norvegicus, 0.5 h; SD male rats, oral dose 3 mg/kg; plasma radioactivity 30 minutes after 32P-phosphate solution, vs control group; read-out: Rate of inhibition of phosphate absorption
Method in brief: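 Male 8-week-old SD rats were dosed orally at 5 ml/kg with compound at 0.2 mg/mL or 0.6 mg/mL in water, then 5 min later given 32P-phosphate in 1.3 mM NaH2PO4 (5 ml/kg). Plasma radioactivity at 30 minutes was counted by liquid scintillation; inhibition (%) was calculated relative to the water-dosed control group.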

human NHE3 = molecular target: T1, human NHE3 (Homo sapiens, UniProt P48764); experiment: NHE3 inhibition test (recovery of intracellular pH in cell line stably expressing human NHE3); format: cell-based; conditions: OK cells deficient in endogenous NHE stably expressing human NHE3; BCECF fluorescence, initial rate of pH recovery; read-out: human NHE3 inhibitory activity IC50
T1 sequence (P48764 26-834): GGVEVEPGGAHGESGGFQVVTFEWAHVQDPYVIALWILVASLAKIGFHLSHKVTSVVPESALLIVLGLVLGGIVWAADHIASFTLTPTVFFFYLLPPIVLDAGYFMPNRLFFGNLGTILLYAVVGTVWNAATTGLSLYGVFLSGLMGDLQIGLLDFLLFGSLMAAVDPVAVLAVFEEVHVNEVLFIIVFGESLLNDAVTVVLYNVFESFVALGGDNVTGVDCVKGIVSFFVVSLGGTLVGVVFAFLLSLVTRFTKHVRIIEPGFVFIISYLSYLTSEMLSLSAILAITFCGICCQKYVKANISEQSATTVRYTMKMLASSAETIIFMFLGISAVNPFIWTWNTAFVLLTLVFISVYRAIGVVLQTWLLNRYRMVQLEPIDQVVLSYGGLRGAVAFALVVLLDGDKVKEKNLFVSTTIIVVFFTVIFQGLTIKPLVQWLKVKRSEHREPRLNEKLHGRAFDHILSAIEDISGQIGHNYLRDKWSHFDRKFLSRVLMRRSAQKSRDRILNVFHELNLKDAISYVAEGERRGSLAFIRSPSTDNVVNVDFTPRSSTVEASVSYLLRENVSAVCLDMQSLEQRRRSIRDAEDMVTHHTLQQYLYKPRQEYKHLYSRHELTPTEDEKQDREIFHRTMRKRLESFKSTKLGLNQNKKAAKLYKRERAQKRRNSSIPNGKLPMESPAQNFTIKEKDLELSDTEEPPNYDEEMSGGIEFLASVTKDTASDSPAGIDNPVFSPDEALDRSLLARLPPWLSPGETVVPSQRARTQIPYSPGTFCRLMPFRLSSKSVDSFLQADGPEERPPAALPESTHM
Method in brief: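 Opossum kidney cells lacking endogenous NHE, stably expressing human NHE3, loaded with BCECF-AM and acid-loaded by NH4Cl washout. Compound in Na-free buffer, then Na-containing buffer (pH 7.4) added; initial pH-recovery rate by BCECF fluorescence, IC50 versus no-compound recovery.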

- IC50 (human NHE3): 3.3 nM
SMILES: CN1Cc2c(Cl)cc(Cl)cc2[C@H](c2cccc(-c3cncc(NCCOCCOCCOCCNC(=O)[C@H](O)[C@@H](O)C(=O)NCCOCCOCCOCCNc4cncc(-c5cccc([C@@H]6CN(C)Cc7c(Cl)cc(Cl)cc76)c5)n4)n3)c2)C1 [Example 8-20, (2R,3R)-N,N′-Bis{2-[2-(2-{2-[(6-{3-[(4S)-6,8-dichloro-2-methyl-1,2,3,4-tetrahydroisoquinolin-4-yl]phenyl}pyrazin-2-yl)amino]ethoxy}ethoxy)ethoxy]ethyl}-2,3-dihydroxybutanediamide tetrahydrochloride]
- inhibition in vivo at 3 mg/kg (SD rat): 37%
